test system: rat; experiment: Intracisternal assay: convulsant response (seizure potential); type: in vivo; settings: injection of 20 micro-liters into the intracisternal cavity, amount giving a 50% seizure rate
Source text: Central to the instant invention was the safety benefit realized by the incorporation of the cyano group to the imidazoliummethylbiphenyl moiety of the carbapenem nucleus, as shown in Table II below. […] This difference in activity was statistically significant and allows one to anticipate a much greater CNS safety profile for the compounds depicted.
The figure reported in Table II was the amount of active compound giving a 50% seizure rate in the rat, serving as a model for humans. For each compound, different concentrations were prepared in water and for each concentration, a group of animals were given an injection of 20 micro-liters into the intracisternal cavity. The seizure response of each member of the group was noted by observation.

Structure (SMILES)	CONVULSANT RESPONSE MCG/HEAD-ED50 [MCG/HEAD]
CC(O)C1C(=O)N2C(C(=O)[O-])=C(c3cc(C#N)cc(-c4ccc(C[n+]5ccn(CCO)c5)cc4)c3)CC12 (centres unmarked) [R^c = CH2 CH2 OH, R' = CN]	100
CC(O)C1C(=O)N2C(C(=O)[O-])=C(c3cccc(-c4ccc(C[n+]5ccn(CCO)c5)cc4)c3)CC12 (centres unmarked) [R^c = CH2 CH2 OH, R' = H]	35
CC(O)C1C(=O)N2C(C(=O)[O-])=C(c3cc(Br)cc(-c4ccc(C[n+]5ccn(C)c5)cc4)c3)CC12 (centres unmarked) [R^c = CH3, R' = Br]	< 12.5
CC(O)C1C(=O)N2C(C(=O)[O-])=C(c3cc(C#N)cc(-c4ccc(C[n+]5ccn(C)c5)cc4)c3)CC12 (centres unmarked) [R^c = CH3, R' = CN]	100
CC(O)C1C(=O)N2C(C(=O)[O-])=C(c3cccc(-c4ccc(C[n+]5ccn(C)c5)cc4)c3)CC12 (centres unmarked) [R^c = CH3, R' = H]	35
